B1: TGF-β2: transforming growth factor, literature data (protein, UniProt P61812 303-414, looked up)
Transforming growth factor …: ALDAAYCFRNVQDNCCLRPLYIDFKRDLGWKWIHEPKGYNANFCAGACPYLWSSDTQHSRVLSLYNTINPEASASPCCVSQDLEPLTILYYIGKTPKIEQLSNMIVKSCKCS

Assays:
[1] = system: human follicle dermal papilla cells (HFDPC); test: growth promotion on cultured human follicle dermal papilla cells (WST-8); assay type: cell-based
From the text: Hair growth is controlled by a unique repetitive cycle comprised of anagen, catagen and telogen phases. Dermal papilla cells (DPCs), a group of specialized fibroblasts within the hair follicle bulb, have an essential function in the control of hair growth not only in the normal hair cycle but also in the pathogenesis of certain conditions, for example in androgenetic alopecia. Therefore, factors affecting the functions of DPCs in hair loss are of great importance from the therapeutic viewpoint. […] HFDPCs are either treated with different concentrations of Minodixil (0.0125-200 μg/mL; see Table 3, left column, serving as the reference) or conditioned medium of the invention at different dilutions (PC, dilution range from 10-1280 times; see third column of Table 3). The negative control (NC) refers to HFDPCs incubated with basal medium only. All data are shown as the mean±standard deviation (SD). For comparison of different treatments between 2 groups, the Student's t test was used. p<0.05 was considered significant, p<0.01 would normally be considered highly significant, and p<0.001 extremely significant. After calculation, p is 0.03.

[2] = system: COVID-19-induced scalp alopecia (telogen effluvium); test: Example 8: case study, COVID-19-induced telogen effluvium; assay type: in vivo, human; details: same patient; minoxidil and LED light treatment (Hairmax)
Description: COVID-19-induced scalp Alopecia can induce telogen effluvium (TE) which refers to diffuse scalp alopecia. A patient with severe chronic TE with no spontaneous recovery after 6 months of hair loss and no response to conventional treatment of minoxidil and LED light treatment (Hairmax) was treated with a composition comprising conditioned medium derived from cultivation of mesenchymal stem cells of the umbilical cord (CALECIM® Advanced Hair System).
The scalp of the patient was progressively treated with rubbing with an alcohol swab, then 1 ml of a composition comprising conditioned medium derived from cultivation of mesenchymal stem cells of the umbilical cord was applied and massaged in till dry. The patient was advised to wait until evening to wash their hair. Five treatments of conditioned medium derived from cultivation of mesenchymal stem cells of the umbilical cord spaced a month apart were administered.

elastin mRNA in HDFs = details: 24 hours, 1 ng/ml; cited from earlier work

| Molecule | cell count of HFDPC (% of control) ([1]; Minoxidil 0.0125 ug/mL) | cell count of HFDPC (% of control) ([1]; Minoxidil 0.025 ug/mL) | cell count of HFDPC (% of control) ([1]; Minoxidil 0.05 ug/mL) | cell count of HFDPC (% of control) ([1]; Minoxidil 0.1 ug/mL) | cell count of HFDPC (% of control) ([1]; Minoxidil 0.2 ug/mL) | cell count of HFDPC (% of control) ([1]; Minoxidil 2 ug/mL) | cell count of HFDPC (% of control) ([1]; Minoxidil 20 ug/mL) | cell count of HFDPC (% of control) ([1]; Minoxidil 200 ug/mL) | more cells compared to negative control ([1]; diluted 320 times) | response to conventional treatment before the study treatment [2] | maximum increase of elastin mRNA steady-state levels (elastin mRNA in HDFs) |
| --- | --- | --- | --- | --- | --- | --- | --- | --- | --- | --- | --- |
| Nc1cc(N2CCCCC2)nc(N)[n+]1[O-] [Minoxidil] | 94 ± 0.6 % of control | 92.2 ± 1.4 % of control | 120.8 ± 4.8 % of control | 120.8 ± 8.8 % of control | 123.2 ± 8.4 % of control | 124.5 ± 10.2 % of control | 98.5 ± 7.7 % of control | 43 ± 2.6 % of control | around 20% | no response |  |
| TGF-β1: transforming growth factor, literature data |  |  |  |  |  |  |  |  |  |  | 30 fold |
| B1 |  |  |  |  |  |  |  |  |  |  | 30 fold |

Source: US20260191766A1, “USE OF CONDITIONED MEDIUM DERIVED FROM CULTIVATION OF MESENCHYMAL STEM CELLS OF THE UMBILICAL CORD FOR INDUCING, STIMULATING AND PROMOTING HAIR GROWTH AND REGENERATION” (CELLRESEARCH CORPORATION PTE. LTD., priority 2022, published 2026)
